These results are taken from patent publication US20120190580A1, “TREATMENT OF PATIENTS AFTER STENT IMPLANTATION OR BALLOON DILATATION AND DRUG ELUTING STENTS” (MAX-PLANCK-GESELLSCHAFT ZUR FORDERUNG DER WISSENSCHAFTEN …, priority 2009, published 2012).

The experiment has as its system mesenteric arteries. Put plainly: Myograph: contractile responses to phenylephrine of mesenteric arteries from losartan-treated mice. Type of experiment: in vivo, mouse. The source says:
A 129S7AB2.2 genomic BAC clone (bMQ-446B20; Sanger) was used to generate the targeting vector. Recombination in SW102 cell was employed to replace the miR-143 to miR-145 genomic region by a galK cassette (45) that was amplified by the primers flanking premiR-143 to pre-miR-145 ([…] GCggcgcgcctcagcactgtcctgctcctt; […] ACggcgcgcctgttgacaattaatcatcggca). The genomic sequence was inserted via gap repair into a pKO targeting vector containing a DTA expression cassette and 450 bp homology arms for BAC recombination resulting in a vector containing 6.5 kb of sequence 5′ of miR-143 and 5.5 kb 3′ of miR-145 from genomic sequence […] to […]. The AscI restriction sites flanking the galK cassette were used to replace the galK by a floxed IRESIacZ-NeoR cassette. The vector was electroporated into MPI II ES cells (46) and recombinant clones were identified. Recombinant ES cells were injected into blastocysts and transferred to pseudopregnant mice. Chimeric animals were backcrossed to C57BL/6 mice. Heterozygous animals were used to obtain WT and KO littermates. ES cells and mice were genotyped using an EcoRV restriction digest and a 5′ outside probe amplified from genomic DNA using oligonucleotides ([…]; […]). For chronic ACE or AT1 inhibition drinking water of mice was supplemented with 600 μg/ml captopril (Sigma#C-8856) and 100 µg/ml losartan (Fluka#61188) for at least 3 weeks. The experiments were performed in accordance with German legislation on protection of animals and were approved by the local governmental animal care committee (Regierungspraesidium Darmstadt).
Isolated segments of femoral and mesenteric arteries were examined in an isometric microvessel myograph as described previously (52). Mounted vessels were stimulated with 80 mM K+, 30 nM angiotensin II or increasing concentrations of phenylephrine (100 nM to 10 μM). The pCa-force relationships (13, 14) were obtained in permeabilized mouse femoral artery segments. In brief, arteries were permeabilized for 30 minutes using 0.5% Triton X-100 in relaxation solution. The latter consisted of (in mM): EGTA 1, Pipes 30, Na2ATP 5.16, MgCl2 7.31, sodium creatine phosphate 10 and potassium gluconate 74.1. For contraction curves the buffer was supplemented with 160 U/ml calmodulin and 100 U/ml creatine phosphokinase. The concentration of free Ca2+ ions was calculated as described previously (53).

`CCCCc1nc(Cl)c(CO)n1Cc1ccc(-c2ccccc2-c2nn[nH]n2)cc1` [losartan]: the “phenylephrine induced contraction relative to K+ force” value (KO mice, losartan for 3 weeks) was 96 % of the K+ force. For the same compound, the “enhancement of phenylephrine induced contraction” value turned out to be 214% (KO mice, losartan for 3 weeks, 3 μM phenylephrine) and 57% (KO mice, losartan for 3 weeks, 10 μM phenylephrine). Besides, where the note is “WT mice, losartan”, the phenylephrine-induced vasoconstriction entry was “did not affect”. For the same compound, the “contractility on phenylephrine stimulation” value (arterial rings from KO animals, losartan-treated vs. KO untreated) is reported as “significant enhancement”.
